Measurements published in patent publication US20100062441A1, “C-MET MUTATIONS AND USES THEREOF” (priority 2007, published 2010).
“And” between values parts separate entries of the source, which are not always exact repeats. Equal entries are not always repeated.

Tests used:
[1] = test system: T1010I c-Met transgenic C. elegans
Description: (§1) To examine the effect of human c-met gene expression in C. elegans, both wild-type c-Met cDNA and mutant c-Met cDNA were individually micro-injected into young adult wild type N2 hermaphrodite gonads (gonad syncitium), at a concentration of 25 μg/ml. The constructs for the mutant c-Met cDNA were generated as described above. Control animals (N2) were injected with vector alone. Injected animals were individually cloned and their progeny were observed under dissecting microscope. Progenies were isolated and examined for visible morphological abnormalities such as defects in vulval formation, body morphology and locomotion. Individually cloned transgenic animals were further analyzed for fecundity and viability.
(§2) Animals in the progeny harboring a visible phenotype such as vulva defect, body morphology change, locomotion defect, and paralysis; and animals showing hyperactivity were isolated, individually cloned and examined with dissecting microscope. For detailed analysis of the phenotype, individual animals were mounted on an agar pad and observed under a Nikon Eclipse E600 fluorescence microscope equipped for Nomarski optics. Images were taken by a Hamamatsu Photonics CCD camera, and processed using the Metamorph digital imaging software (Siddiqui et al., Am J Physiol Lung Cell Mol Physiol 286, L1016-26 (2004)).
(§3) To determine whether a c-Met germline mutation alone is sufficient for lung cancer development or whether in order to develop lung cancer development a synergism of c-Met with smoking is necessary, the C. elegans transgenic animals described above were exposed to nicotine. Nicotine response experiments were performed in M9 buffer as previously described by Waggoner, et al. (Waggoner et al., J Neurosci 20, 8802-11 (2000)). Animals were cultured at 20° C. on nematode growth media (NGM) plates seeded with E. coli strain OP50. To examine the nicotine dose response, individual young adult hermaphrodites were placed in 6-well microtiter plate in M9 buffer at different concentrations of nicotine. Following one hour incubation with nicotine medium plates at 20° C., total numbers of eggs laid by each individual animal were counted.

[2] = test system: wild type human c-Met transgenic C. elegans; details: Wt c-Met
Description: as §1, §2, §3

[3] = test system: R988C c-Met transgenic C. elegans
Description: as §1, §2, §3

C. elegans N2 wild type = test system: C. elegans N2 wild type
Description: as §1, §2, §3

[4] = test system: reactive oxygen species (ROS) in MU melanoma cells; test: Reactive oxygen species measurement by DHE immunofluorescence; type: cell-based, human; details: HGF 40 ng/ml for 7.5 min; DHE
Description: 5×10^4 MU melanoma cells were plated in 35 mm petri dishes. After 24 hrs MU Melanoma cells were kept in serum free media containing 0.5% BSA with and without 5 μM SU11274 for 12 hrs. Cells were treated with 40 ng/ml HGF for 7.5 min, then treated with DHE 10 μM (molecular probes Inc, Eugene, Oreg.) for 30 min, after which they were visualized under a fluorescent Olympus microscope IX81, 20× objective, ND3 and Rhodamine filter sets. Fluorescence was then quantified using Image J and graphed.
The endogenous levels of reactive oxygen species (ROS) was also analyzed in MU melanoma cells with and without HGF treatment using DHE by fluorescence microscopy. DHE is a redox sensitive probe that has widely been used to detect intracellular superoxide anion. The relative levels of ROS were increased in response to HGF by 47%, and SU11274 decreased the ROS response to HGF to 3%.

NSCLC = details: in combination with chemotherapy; cited from earlier work
[5] = chronic exposure with nicotine (20 μm)
[6] = nicotine (20 μM) for 24 hours or more

CN1CCCC1c1cccnc1 (stereo not shown) [nicotine]
Body Shape Changes [1, 5]: 21% and 21 ± 0.14 % | Growth Arrest [1, 5]: 29% and 29.0 ± 0.11 % | viability ([1]; in the presence of nicotine): 4.58% | vulval defects [1, 6]: 28% | Body Shape Changes [2, 5]: 12% and 12 ± 0.22 % | Growth Arrest [2, 5]: 9.72% and 9.72 ± 0.16 % | Locomotion Defects [2, 5]: 11% and 11 ± 0.09 % | Paralysis [2, 5]: 8% and 8 ± 0.08 % | viability ([2]; in the presence of nicotine): 65.06% | vulval defects [2, 6]: 6% | Body Shape Changes [3, 5]: 18% and 18 ± 0.13 % | Growth Arrest [3, 5]: 22.9% and 22.9 ± 0.41 % | viability ([3]; in the presence of nicotine): 30.54% | vulval defects [3, 6]: 15% | Body Shape Changes (C. elegans N2 wild type; [5]): 3% and 3 ± 0.21 % | Growth Arrest (C. elegans N2 wild type; [5]): 1.23% and 1.23 ± 0.19 % | Locomotion Defects (C. elegans N2 wild type; [5]): 1% and 1 ± 0.18 % | Paralysis (C. elegans N2 wild type; [5]): 2% and 2 ± 0.02 % | viability (C. elegans N2 wild type; in the presence of nicotine): 91.94% | vulval defects (C. elegans N2 wild type; [6]): 2%

HGF: hepatocyte growth factor, the ligand for c-Met
increase of relative levels of ROS [4]: 47%

bevacizumab: targeted therapy against VEGF
enhancement of median overall survival (NSCLC): 2.3 months
